Results on three compounds are retold here after patent US11497746B2, “Pharmaceutical combinations comprising a histone deacetylase inhibitor and a programmed death-ligand 1 (PD-L1) inhibitor and methods of use thereof” (Acetylon Pharmaceuticals, Inc., priority 2016, dated 2022).

For series [1], the system named is H929 multiple myeloma cells. As to the kind of experiment: PD-L1 expression by flow cytometry in H929 cells. The series is classed as cell-based. The following applies: Compound A 1 μM and 2 μM, 48 hours, flow cytometry (FIG. 1). How it is done: After bone marrow aspiration, fresh bone marrow mononuclear cells (MNC) were obtained by ammonium chloride based-lyses of red cells followed by washing in phosphate-buffered saline (PBS). For ADCC assays, cells were immediately incubated with anti-PD-L1 antibody (BMS-936559, also referred to herein as “MDX-1105” 1 μg/mL) in the presence of Compound A or Compound B in complete medium in 96-well plate. The cells were incubated for 72 h at 37° C. in a 5% CO2 environment. The viability of primary MM cells in BM MNC was determined by near infrared (n-IR) viability dyes. The surviving CD138+ MM cells were enumerated in the presence of Flow-Count Fluorospheres (Beckman Coulter, CA, USA), to determine absolute numbers of viable MM cells. Phenotypic analyses of MNC were performed using a single 5-color combination of monoclonal antibodies containing BV421/PD-L1(CD274)-BV711 (BD Biosciences, San Jose, Calif., USA). PD-L1 on plasma cells was determined using a commercial assay (BD Biosciences, San Jose, Calif., USA). After incubation, cells were washed twice in PBS containing 2% BSA, and then re-suspended in PBS for analysis on a Fortessa cytometer (Becton Dickinson, Mountain View, Calif.). MM cell lines were also applied to this method in some experiments. […]
(In general: Flow cytometry measures light scatter and fluorescence of single cells or particles in a stream.)

Series [2] has as its system U266 cells. As to the kind of experiment: PD-L1 expression in U266 cells cultured in stromal cell supernatant. The series is classed as cell-based. The following applies: Compound B 1 μM, 48 hours, FCM (FIG. 3). How it is done:
Mononuclear cells separated by Ficoll-Hypaque density sedimentation from bone marrow aspirates were cultured in 15% FBS-RPMI1640 for 5-6 weeks to establish long-term bone marrow stromal cells. Culture supernatant from BMSCs was used for stimulation of MM cell lines.
(§1) After bone marrow aspiration, fresh bone marrow mononuclear cells (MNC) were obtained by ammonium chloride based-lyses of red cells followed by washing in phosphate-buffered saline (PBS). For ADCC assays, cells were immediately incubated with anti-PD-L1 antibody (BMS-936559, also referred to herein as “MDX-1105” 1 μg/mL) in the presence of Compound A or Compound B in complete medium in 96-well plate. The cells were incubated for 72 h at 37° C. in a 5% CO2 environment. The viability of primary MM cells in BM MNC was determined by near infrared (n-IR) viability dyes. The surviving CD138+ MM cells were enumerated in the presence of Flow-Count Fluorospheres (Beckman Coulter, CA, USA), to determine absolute numbers of viable MM cells. […] PD-L1 on plasma cells was determined using a commercial assay (BD Biosciences, San Jose, Calif., USA). […]
To determine the effect stromal cell priming has on PD-L1 expression in U266 cells treated with Compound B, U266 cells were cultured in stromal cell supernatant (sup) in the presence or absence of Compound B (1 μM) for 48 hours. PD-L1 expression was assessed by FCM. […]

Series [3] deals with H929 cells. Kind of series: anti-PD-L1 antibody-dependent cell-mediated cytotoxicity in H929 cells. To be noted: H929 cells with PBMCs, Compound B alone 0.25, 0.5, 1 μM, 72 h, then anti-PD-L1 antibody 0.5 μg/ml 3 h, FCM (FIG. 7). The class given is cell-based. How it is done: After bone marrow aspiration, fresh bone marrow mononuclear cells (MNC) were obtained by ammonium chloride based-lyses of red cells followed by washing in phosphate-buffered saline (PBS). For ADCC assays, cells were immediately incubated with anti-PD-L1 antibody (BMS-936559, also referred to herein as “MDX-1105” 1 μg/mL) in the presence of Compound A or Compound B in complete medium in 96-well plate. The cells were incubated for 72 h at 37° C. in a 5% CO2 environment. The viability of primary MM cells in BM MNC was determined by near infrared (n-IR) viability dyes. […] PD-L1 on plasma cells was determined using a commercial assay (BD Biosciences, San Jose, Calif., USA). […]
To assess the effect of Compound B in combination with pomalidomide on ADCC using anti-PD-L1 antibody-dependent cell-mediated cytotoxicity in H929 cells, H929 cells were stained with carboxyfluorescein succinimidyl ester (CFSE) and cultured with PBMCs in the presence or absence of pomalidomide (0.1 μM), Compound B (0.25, 0.5, 1 μM) for 72 hours. […] Cytotoxicity was assessed by FCM. […]
H929 cells were stained with CFSE and cultured with PBMCs in the presence or absence of pomalidomide (0.1 μM), Compound B (0.25, 0.5, 1 μM) for 72 h. […] Cytotoxicity was assessed by FCM (FIG. 7). […]

Series [4] has as its system MM.1S, H929, KMS12-PE, OPM1 and U266 multiple myeloma cells. As to the kind of experiment: PD-L1 expression in a panel of multiple myeloma cell lines. The class given is cell-based. To be noted: 2 μM, 48 hours (FIG. 2). How it is done:
After bone marrow aspiration, fresh bone marrow mononuclear cells (MNC) were obtained by ammonium chloride based-lyses of red cells followed by washing in phosphate-buffered saline (PBS). For ADCC assays, cells were immediately incubated with anti-PD-L1 antibody (BMS-936559, also referred to herein as “MDX-1105” 1 μg/mL) in the presence of Compound A or Compound B in complete medium in 96-well plate. […] The viability of primary MM cells in BM MNC was determined by near infrared (n-IR) viability dyes. The surviving CD138+ MM cells were enumerated in the presence of Flow-Count Fluorospheres (Beckman Coulter, CA, USA), to determine absolute numbers of viable MM cells. Phenotypic analyses of MNC were performed using a single 5-color combination of monoclonal antibodies containing BV421/PD-L1(CD274)-BV711 (BD Biosciences, San Jose, Calif., USA). PD-L1 on plasma cells was determined using a commercial assay (BD Biosciences, San Jose, Calif., USA). After incubation, cells were washed twice in PBS containing 2% BSA, and then re-suspended in PBS for analysis on a Fortessa cytometer (Becton Dickinson, Mountain View, Calif.). MM cell lines were also applied to this method in some experiments.

The subject of series [5] is Mononuclear cells from MM patients' bone marrow aspirates. Kind of series: anti-PD-L1 antibody induced cytotoxicity, autologous setting, ex vivo. The class given is cell-based, human. To be noted: anti-PD-L1 Ab 0.5 μg/ml, Compound B 0.5 μM, 72 h (FIG. 8 and FIG. 9). How it is done:
After bone marrow aspiration, fresh bone marrow mononuclear cells (MNC) were obtained by ammonium chloride based-lyses of red cells followed by washing in phosphate-buffered saline (PBS). […] The cells were incubated for 72 h at 37° C. in a 5% CO2 environment. The viability of primary MM cells in BM MNC was determined by near infrared (n-IR) viability dyes. The surviving CD138+ MM cells were enumerated in the presence of Flow-Count Fluorospheres (Beckman Coulter, CA, USA), to determine absolute numbers of viable MM cells. Phenotypic analyses of MNC were performed using a single 5-color combination of monoclonal antibodies containing BV421/PD-L1(CD274)-BV711 (BD Biosciences, San Jose, Calif., USA). PD-L1 on plasma cells was determined using a commercial assay (BD Biosciences, San Jose, Calif., USA). After incubation, cells were washed twice in PBS containing 2% BSA, and then re-suspended in PBS for analysis on a Fortessa cytometer (Becton Dickinson, Mountain View, Calif.). MM cell lines were also applied to this method in some experiments.
H929 cells were stained with CFSE and cultured with PBMCs in the presence or absence of pomalidomide (0.1 μM), Compound B (0.25, 0.5, 1 μM) for 72 h. The cells were then incubated with Ab (0.5 μg/ml PD-L1) for 3 h. Cytotoxicity was assessed by FCM (FIG. 7). […]

In series [6] the test system is U266 cells. Kind of series: anti-PD-L1 antibody-dependent cell-mediated cytotoxicity in U266 cells. The class given is cell-based. The following applies: Compound B 1 μM plus stromal cell supernatant 48 hours, then anti-PD-L1 antibody 1 μg/ml and PBMC (E/T=15/1 and 30/1) 5 hours, FCM (FIG. 4). How it is done:
Multiple myeloma cells were incubated with Calcein-AM (Invitrogen, 2 μg/ml/1 million cells) for 30 min at 37° C. After washing, the cells were used for target cells. Mononuclear cells were obtained from healthy volunteer peripheral blood by Ficoll-Paque density centrifugation and used for effector cells. […] Percent specific lysis was calculated as follows, % specific lysis=[experiment fluorescence−spontaneous fluorescence (no effector)]/[complete lysis (100% killing by detergent)−spontaneous fluorescence (no effector)]×100.
as §1

Series [7] has as its system RPMI8226 cells. As to the kind of experiment: anti-PD-L1 antibody-dependent cell-mediated cytotoxicity in RPMI8226 cells. The class given is cell-based. To be noted: RPMI8226 cells with PBMCs (E/T=15/1), pomalidomide 0.1 μM 72 hours, then anti-PD-L1 antibody 0.5 μg/ml 3 hours, FCM (FIG. 5). How it is done:
After bone marrow aspiration, fresh bone marrow mononuclear cells (MNC) were obtained by ammonium chloride based-lyses of red cells followed by washing in phosphate-buffered saline (PBS). For ADCC assays, cells were immediately incubated with anti-PD-L1 antibody (BMS-936559, also referred to herein as “MDX-1105” 1 μg/mL) in the presence of Compound A or Compound B in complete medium in 96-well plate. The cells were incubated for 72 h at 37° C. in a 5% CO2 environment. The viability of primary MM cells in BM MNC was determined by near infrared (n-IR) viability dyes. The surviving CD138+ MM cells were enumerated in the presence of Flow-Count Fluorospheres (Beckman Coulter, CA, USA), to determine absolute numbers of viable MM cells. Phenotypic analyses of MNC were performed using a single 5-color combination of monoclonal antibodies containing BV421/PD-L1(CD274)-BV711 (BD Biosciences, San Jose, Calif., USA). PD-L1 on plasma cells was determined using a commercial assay (BD Biosciences, San Jose, Calif., USA). […]
Similarly, RPMI8226 cells were cultured with PBMCs (E/T=15/1) in the presence or absence of pomalidomide (Pom, 0.1 μM) for 72 hours. After subsequent cultivation with anti-PD-L1 antibody (0.5 μg/ml) for 3 hours, percent specific killing was assessed by FCM. […]

The structures appear in SMILES notation.

For `O=C(CCCCCCNC(=O)c1cnc(N(c2ccccc2)c2ccccc2)nc1)NO` [Compound A, 2-(diphenylamino)-N-(7-(hydroxyamino)-7-oxoheptyl)pyrimidine-5-carboxamide], in series [1], the PD-L1 expression result is reported as “increased”.

For the compound `O=C(CCCCCCNC(=O)c1cnc(N(c2ccccc2)c2ccccc2Cl)nc1)NO` [Compound B, 2-((2-chlorophenyl)(phenyl)amino)-N-(7-(hydroxyamino)-7-oxoheptyl)pyrimidine-5-carboxamide], the PD-L1 expression result was “highest” in series [2] and “enhanced” in series [4]. Besides, the “anti-PD-L1 Ab-induced cytotoxicity” value in series [3] was “enhanced”. The anti-PD-L1 antibody induced-cytotoxicity entry in series [5] is reported as “enhanced”. In addition, the percent specific lysis entry in series [6] is reported as “greatest”.

`Nc1cccc2c1C(=O)N(C1CCC(=O)NC1=O)C2=O` (stereo not shown) [Pomalidomide, pomalidomide]: the “percent specific killing (cytotoxicity)” value in series [7] is reported as “enhanced”.
